# Reference: US11304989B2, “Peptides for use in the treatment of viral infections” (priority 2017, dated 2022)
# “And” between values parts separate entries of the source, which are not always exact repeats. Equal values may be shown once. Read-outs that look alike come from different tables or passages of the source.
# Assays:
# [1] = test system: inflammatory cytokines IL2, IFN-γ, TNF-α; details: reference [9]; cited from earlier work
# [2] = test system: influenza A H5N1 Duck/MN/1525/81 virus; details: mouse, in vivo; cited from earlier work
# [3] = test system: H1N1/A/California/04/09 influenza virus; design: species or system BALB/c mice; details: mouse, in vivo
# [4] = test system: influenza A H5N1 Duck/MN/1525/81 virus; design: species or system BALB/c mice; details: mouse, in vivo
# [5] = test system: cytokine and chemokine levels in lungs of mice infected with H5N1 influenza virus; design: species or system BALB/c mice; details: mouse, in vivo
# H5N1 influenza virus = test system: H5N1 influenza virus; design: species or system BALB/c mice; details: mouse, in vivo
# [6] = test system: H1N1/A/California/04/09 influenza virus; assay: Body weight of mice in lethal H1N1 influenza infection; format: in vivo, BALB/c mice; details: FIG. 3A, 3B
compound,measurement,setting,value
YVNQTDIY [p4TA],biological activity compared with p2TA,[1],biological activity similar to that of p2TA
SNGTIIHVK [p5TA],biological activity compared with p2TA,[1],biological activity similar to that of p2TA
HKGLDSAV [p3TA],biological activity compared with p2TA,[1],biological activity similar to that of p2TA
"CCOC(=O)C1=C[C@@H](OC(CC)CC)[C@H](NC(C)=O)[C@@H](N)C1 [Oseltamivir, reference compound]",survival routinely yielded by this Oseltamivir dose,[2],10-30%
same,survival,[3],30%
same,survival,[4],70% and 50%
(D-Ala)-SPMLVAYD-(D-Ala) (XSPMLVAYDX; D-Ala at both termini; (D-A)-p2TA-(D-A); (1)..(1) X equals to D-Ala; (10)..(10) X equals to D-Ala),IFN-γ level in lungs,[5],significantly reduce
same,IL-1α level in lungs,[5],significantly reduce
same,IL-1β level in lungs,[5],significantly reduce
same,IL-6 level in lungs,[5],significantly reduce
same,IL-10 level in lungs,[5],did not significantly reduce
same,monocyte chemoattractant protein-1 (MCP-1) level in lungs,[5],significantly reduce
same,protection,[3],did not prove protective
same,arterial oxygen saturation level,H5N1 influenza virus,significantly improved
same,oxygen saturation (lung function),H5N1 influenza virus,significant improvement in lung function
same,prolongation of survival over untreated control,[4],"moderate, dose-dependent prolongation of survival"
same,protection,[4],no protection
same,effect on death,[4]; ip,delayed death
same,survival,[4]; ip,30%
same,recovery from infection-induced weight loss,"[6]; dose-dependent, after day 8",partial recovery from infection-induced weight loss
same,weight gain by day 17,"[6]; p2TA 10 μg per mouse, Ribavirin 75 mg/kg i.p.",~20%
